Assay results: patent publication US20100226900A1, “PREVENTION AND TREATMENT OF OSTEOCHONDROSIS IN ANIMALS AND HUMANS” (U.S. Borax Inc., priority 2005, published 2010)

Experiments:
sows and piglets = type: in vivo
Experimental: Boron was added to the diet of sows at 1 mg/kg body weight as boric acid. […] Among a group of 95 piglets the birth to weaning mortality was 2 piglets. The usual mortality for this farm was about 5 to 7%. These piglets remained on boron 50 ppm plus ascorbate 125 ppm. One pig was euthanized and examined at a weight of about 85 pounds. […] All bones of the appendicular skeleton were sectioned on the band saw.

pigs = settings: about 100 pigs, 50 ppm boron as boric acid
Source text: An Iowa farm treated a group of about 100 pigs with 50 ppm boron as boric acid.

[1] = tested on: growing swine (osteochondrosis); assay: Boron supplementation and OC-associated lameness in growing swine (Example 1); type: in vivo, pig
Experimental: The basal diet consisted of commercial corn-soy diet containing 10 ppm boron.
Test diet group B was fed a basal diet plus 25 mg/kg boron as sodium borate decahydrate (borax). Test diet group A was fed a basal diet plus 25 mg/kg boron as sodium borate decahydrate (borax) and 250 mg/kg ascorbic acid.
Pigs were weighed at the beginning of the study, 4 weeks later and every 3 weeks until the end of the study. Animals were scored for soundness on a 5-point scale at each weighing. (Five-point scale: 1=no soundness defects; 2=minor soundness issues but still sound enough for retention as breeding animal; 3=not sound enough for retention for breeding but still marketable; 4=unsound, likely to be rejected at slaughter; 5=severely lame, requiring euthanasia for humane reasons.) Grading was done by the caretaker and the investigator at all weighing times. An experienced independent treatment-blind rater also evaluated the soundness of each animal and the ratings he provided were compared with the ratings of the caretaker and investigator by use of Cohen's Kappa test.
The animals were housed in a modern curtain sided barn with deep straw bedding, with ad libitum access to feed and water. Waterers and feeders were on a concrete pad but the remainder of the flooring was deep straw over a ground limestone and sand base. Floor space allowances exceeded the recommendations of the Guide for the Care and Use of Agricultural Animals in Agricultural Research and Teaching, First Revised Edition, 1999. Federation of Animal Science Societies. Savoy, Ill.
The basal diet (no boron supplemented) was analysed and found to contain boron at the rate of 10 ppm which is typical for a corn-soybean meal based diet.
At the end of the study the pigs were transported to a laboratory where they were euthanized and necropsied. Six pigs in each of group B and group A were put on the control diet for 7 days at the end of the study.
At necropsy, samples of liver, heart, kidney, fat, skeletal muscle, proximal tibia, blood, and the rostral snout were retained and frozen at −40° C. prior to chemical analysis. All joints of the axial skeleton were evaluated for the presence of gross lesions of osteochondrosis and graded on a 5 point scale. (5-point scale: 1=no gross abnormalities; 2=minor imperfections in articular conformation or articular reddening present but no cartilage erosions; 3=cartilage intact but surface irregularities of the cartilage are present; 4=fissuring or erosion of articular cartilage is obvious; 5=full thickness cartilage lesions or cartilage flaps, osteochondritis dissecans obviously present).
The proximal femur (femoral head) and articular surfaces and growth plates associated with the stifle, hock, shoulder, elbow and carpus were sectioned with a band saw and approx. 0.5 to 1.0 cm sections fixed in formalin. Bone sections were decalcified with formic acid/sodium citrate, embedded in paraffin and sectioned at 5 microns. Sections were deparaffinized according to standard procedures. Two sections were made from each joint and growth plate and stained with either hematoxylin/eosin (H&E) or with toluidine blue (pH 4)/fast green for evaluation of the articular cartilage, subchondral bone and growth plate.
Mean joint lesion scores, growth rate and soundness scores by treatment and by factors boron and ascorbate were compared using an analysis of variance and t-test as appropriate. Soundness scores were dichotomised into binary categorical variables for lameness (soundness score>2) and for absence of defects (soundness<2), and the binary variables analysed by chi-square and logistic regression.
Tissue specimens stained with H&E were examined microscopically for the presence of lesions of osteochondrosis. Toluidine Blue staining allowed assessment of retention or loss of proteoglycan from the extracellular matrix (ECM) of the cartilage. Each tissue section was scored by a treatment-blind board-certified pathologist. […]

[2] = tested on: sulfated glycosaminoglycan (sGAG) of cartilage; assay: Glycosaminoglycan study: sGAG in articular cartilage plugs of fed pigs (Example 2); type: in vivo, pig; settings: pigs fed 50 ppm boron; hock and elbow joints; unsupplemented 5045 ng/g; p<0.01
Experimental: Hock joints and elbow joints were obtained at necropsy from pigs in two feeding groups: one group having been fed a commercial ration supplemented with 50 mg B/kg feed and the other being fed only the standard commercial pig ration.
Cartilage plugs were harvested from the articular surfaces of 40 hock and elbow joints using a #5 (10.5 mm) cork borer. The samples were papain digested and analyzed for concentration of sulfated glycosaminoglycan (sGAG) using a spectrophotometric microplate analysis procedure adapted from Farndale, et al (1986), using a chondrotin sulfate standard. This method measures total sulfated glycosaminoglycan, most of which is chondrotin sulfate and keratan sulfate components of aggrecan. Aggrecan is the large aggregating proteoglycan of cartilage responsible for creating and maintaining the osmotic pressure of cartilage. Quanititation of sGAG concentration thus provides a measure of the weight-bearing and anti-friction properties of cartilage and is a measure of cartilage quality and durability.

sows and their litters = assay: Sow and litter trial in a commercial swine operation during a PRRSV outbreak (Example 3); type: in vivo, pig; settings: sows given oral 1 mg boron per pound BW per day
Experimental: To test the effect of boron on sows and their litters, a trial was established in a large commercial swine operation during an outbreak of porcine viral reproductive and respiratory disease (PRRSV). Boron was administered orally to a group of 51 sows individually housed in crates at the rate of 1 mg boron per pound BW per day beginning 1 week prior to farrowing and continuing until the piglets were weaned at 14 days of age. […] Boron treatment was supplied as a single daily dosing and was discontinued at weaning. All sows were fed a standard commercial sow diet.

crossbred pigs = assay: 28-day feeding trial: phosphorus digestibility and excretion, feed conversion (Example 4); type: in vivo, pig
Experimental: Pigs were randomly allocated to 24 pens of 6 pigs per pen in a thermoneutral controlled environment barn with steel grid flooring. Each pen was equipped with a single-hole feeder. Water was available free-choice from a nipple drinker. […] Feces were collected on the last 3 days of the study from each pen and a pooled aliquot was dried and submitted for chemical analysis. Yttrium oxide was added to the diet at 0.05% and served as a marker for phosphorus digestibility. Pig growth and feed consumption was measured at the end of the study with the pen as the experimental unit. Data was analyzed for effects of boron and calcium by univariate and multivariate analysis of variance and t-tests.

[3] = tested on: pigs (boron crosslinks, osteochondrosis)
Experimental: The pigs were evaluated for lameness daily and euthanatized on day 13 and the joints and other organs were examined.

[4] = tested on: gestating and lactating sows and their piglets; assay: Reproductive effects in sows: observation and preliminary pilot study (Example 3)
Experimental: Sows were fed a standard corn-soy diet. Half of the sows received an oral administration of a boron supplement to provide 1 mg boron per kg body weight.

[5] = boron 50 ppm in feed, 3-NPB none, 5 pigs
[6] = sows fed 50 ppm supplemental boron, late gestation and early lactation

Structure (SMILES): OB(O)O [boric acid]
- Birth to weaning mortality (sows and piglets; among a group of 95 piglets, usual mortality of the farm about 5 to 7%): 2 piglets
- Outcome in three noticeably and seriously lame sows (sows and piglets; sows, boron 1 mg/kg body weight as boric acid in diet): became perfectly sound
- Growth rate (pigs): excellent growth rate
- Lameness/unsoundness rate (pigs; estimated previous rate about 25 to 30%): zero

Structure (SMILES): [B] [boron]
- Joint health vs basal diet (FIG. 1) ([1]; 25 mg/kg boron as borax vs basal diet): healthier joints
- Growth plate lesions associated with widening, share of tissues ([1]; 25 ppm boron in feed (as borax), unsupplemented group 57%): 19%
- Articular cartilage lesions (necrosis, hemorrhage, infarction, or streaks), share of tissues ([1]; 25 ppm supplemental B in feed, unsupplemented pigs 21%): 4%
- TBlue staining intensity of cartilage (semi-quantitative sGAG content) ([1]; boron supplemented group vs unsupplemented): consistently higher
- Incidence of osteochondrosis-associated lameness ([1]; growing swine, boron supplementation): effective in reduction
- Occurrence of osteochondrosis ([1]; pigs, supplemental boron 25 ppm to 50 ppm (FIGS. 1, 3, 4)): significant reduction
- sGAG concentration in cartilage (dry matter basis) [2]: 11050 ng/g
- Effect on litter size at birth (sows and their litters): no effects
- Effect on piglet birth weight (sows and their litters): no effects
- Likelihood to conceive relative to control sows (sows and their litters; p=0.04): 1.2 times
- Return to estrus, average days quicker than control sows (sows and their litters; p=0.047): 1.6 days
- Phosphorus Digestibility (%) (crossbred pigs; 50 ppm added B in feed, 28 days, no added B 33.4, p 0.017): 36.3%
- Phosphorus excretion in Feces (g/Kg gain) (crossbred pigs; 50 ppm added B in feed, 28 days, no added B 88.1, p 0.028): 74.6 g/Kg gain
- Reduction of phosphorus excretion per unit of production (crossbred pigs; boron added to the diet vs no added boron): 15%
- Joint findings at necropsy (sows and piglets; one pig of about 85 pounds kept on boron 50 ppm plus ascorbate 125 ppm): No abnormalities were observed
- Clinical Lameness Score: count of pigs Normal [3, 5]: 5
- Clinical Lameness Score: count of pigs with Visible Lameness [3, 5]: 0
- Prevalence and severity of osteochondrosis lesions in shoulder, stifle, hock and elbow joints ([3]; supplemental boron, no 3-NPB): lowest prevalence of lesions and the lowest severity
- Piglet weight at 12 days of age ([4]; pilot study, sows given oral 1 mg boron per kg body weight, non-supplemented 8.0 pounds): 8.5 pounds
- Pre-weaning mortality ([4]; pilot study, sows given oral 1 mg boron per kg body weight, non-supplemented 23%, preliminary, first 600 pigs): 16%
- Piglet quality (uniformity, growth, general thrift) [4, 6]: improved
- Pre-weaning piglet mortality (observation) [4, 6]: reduced
